Assays:
aldosterone synthase = biological target: T1, aldosterone synthase (Homo sapiens, UniProt P19099); assay: MAD study: urine aldosterone and tetrahydroaldosterone; format: in vivo; conditions: mean
T1 construct: synthesized in the adrenal cortex by aldosterone synthase; endogenous in cells; host or cells: adrenal cortex of healthy human subjects (in vivo, oral dosing)
T1 sequence (P19099 25-503): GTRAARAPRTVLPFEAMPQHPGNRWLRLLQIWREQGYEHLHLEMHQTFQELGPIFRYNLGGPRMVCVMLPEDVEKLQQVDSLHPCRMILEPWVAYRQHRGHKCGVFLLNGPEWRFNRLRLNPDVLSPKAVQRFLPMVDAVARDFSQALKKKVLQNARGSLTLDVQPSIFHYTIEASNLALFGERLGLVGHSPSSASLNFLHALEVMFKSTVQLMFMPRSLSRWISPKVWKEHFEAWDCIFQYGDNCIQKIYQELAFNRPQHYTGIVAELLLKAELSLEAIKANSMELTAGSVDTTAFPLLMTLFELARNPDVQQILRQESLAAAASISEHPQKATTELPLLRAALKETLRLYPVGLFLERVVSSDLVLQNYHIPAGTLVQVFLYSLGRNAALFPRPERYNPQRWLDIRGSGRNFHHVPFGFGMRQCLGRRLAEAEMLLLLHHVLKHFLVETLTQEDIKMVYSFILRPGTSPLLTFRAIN
Text: For each subject, the study consisted of: • A screening period of up to 28 days; • A 5-day inpatient run-in period during which subjects adhered to a controlled, standardized diet and underwent baseline PD assessments; • A 15-day inpatient treatment period, during which subjects received (R)-compound 1 or placebo once daily for 10 days while adhering to a controlled, standardized diet, followed by PK and PD sampling over an additional 5 days; and • A follow-up visit 3 days (1 day) after discharge from the clinical unit. • A cortisol stimulation test (Cohorts 1 and 2 only) and standing aldosterone assessment (all cohorts) were performed on Days 1 and 10. Serial blood samples for PK and PD were obtained prior to and at specified time points over 24 hours after dosing on Day 1 as well as prior to and at specified time points over 120 hours after dosing on Day 10. In addition, blood samples for PK were collected prior to dosing on Days 8 and 9. Urine for PK and PD measurements was collected over 24 hours starting just prior to dosing on Day 1 as well as over 120 hours starting just prior to dosing on Day 10.
Urine PD measures included concentrations of • Aldosterone; • Cortisol (free and total); and • Tetrahydroaldosterone.
For analysis, the urine PD concentrations were converted to total analyte amounts: Total amount (unit)=concentration (unit/volume) • urine volume

[1] = Renal impairment study, single 10 mg dose: pharmacokinetics; format: in vivo, human; conditions: for geometric mean ratio AUC(0-inf) versus control group / geometric mean ratio AUC(0-last) versus control group / geometric mean ratio Cmax versus control group: single 10 mg dose
Experimental: Of particular relevance to study subjects who will be enrolled in this trial is the investigation of the pharmacokinetics of (R)-compound 1 in individuals with varying degrees of renal impairment. The PK profiles of (R)-compound 1 and its primary metabolite following administration of a single 10 mg dose in individuals with renal impairment were qualitatively and quantitatively similar to those measured in healthy subjects. […] There were no noteworthy increases in systemic exposure or decrease in clearance in individuals with impaired renal function. Dose adjustment of (R)-compound 1 based on renal function was therefore not necessary.
One subject with end stage disease experienced an unrelated SAE of metabolic encephalopathy and a moderate unrelated adverse event (AE) of tremor. One control subject experienced a mild AE of diarrhea, which was considered to be related to study drug by the Investigator. […] It is not necessary to dose adjust (R)-compound 1 for patients with renal impairment.
There was no substantial impact of renal impairment on the PK of (R)-compound 1 based on pair-wise comparisons and no strong or nonlinear relationship between estimated GFR and PK parameters was observed. Findings for the primary metabolite of (R)-compound 1 was similar to those for parent with no clinically meaningful differences observed across groups. The percent of the dose excreted renally was approximately 12% in the control group and the moderate to severe renal impairment group. […] Based on the results of this study, dose adjustment of (R)-compound 1 in renally impaired individuals is not considered necessary.

[2] = moderate to severe renal impairment group

CCC(=O)N[C@@H]1CCCc2c(-c3ccc4c(c3)CCC(=O)N4C)cncc21 [(R)-Compound 1, (R)—N-(4-(1-methyl-2-oxo-1,2,3,4-tetrahydroquinolin-6-yl)-5,6,7,8-tetrahydroisoquinolin-8-yl)propionamide]
Urine aldosterone (ng), Percent change from baseline (Day −1) to Day 1 0-24 hr (aldosterone synthase; 0.5 mg QD, normal salt diet): −23.7290% | Urine aldosterone (ng), Percent change from baseline (Day −1) to Day 10 0-24 hr (aldosterone synthase; 0.5 mg QD, normal salt diet): 4.2728% | Urine tetrahydroaldosterone (ng), Percent change from baseline (Day −1) to Day 1 0-24 hr (aldosterone synthase; 0.5 mg QD, normal salt diet): −12.0171% | Urine tetrahydroaldosterone (ng), Percent change from baseline (Day −1) to Day 10 0-24 hr (aldosterone synthase; 0.5 mg QD, normal salt diet): 11.0511% | Urine aldosterone (ng), Percent change from baseline (Day −1) to Day 1 0-24 hr (aldosterone synthase; 1.5 mg QD, normal salt diet): −67.6229% | Urine aldosterone (ng), Percent change from baseline (Day −1) to Day 10 0-24 hr (aldosterone synthase; 1.5 mg QD, normal salt diet): −65.6831% | Urine tetrahydroaldosterone (ng), Percent change from baseline (Day −1) to Day 1 0-24 hr (aldosterone synthase; 1.5 mg QD, normal salt diet): −47.0556% | Urine tetrahydroaldosterone (ng), Percent change from baseline (Day −1) to Day 10 0-24 hr (aldosterone synthase; 1.5 mg QD, normal salt diet): −60.9034% | Urine aldosterone (ng), Percent change from baseline (Day −1) to Day 1 0-24 hr (aldosterone synthase; 2.5 mg QD, low salt diet): −61.1877% | Urine aldosterone (ng), Percent change from baseline (Day −1) to Day 10 0-24 hr (aldosterone synthase; 2.5 mg QD, low salt diet): −19.3985% | Urine tetrahydroaldosterone (ng), Percent change from baseline (Day −1) to Day 1 0-24 hr (aldosterone synthase; 2.5 mg QD, low salt diet): −26.0540% | Urine tetrahydroaldosterone (ng), Percent change from baseline (Day −1) to Day 10 0-24 hr (aldosterone synthase; 2.5 mg QD, low salt diet): −6.2967% | Urine aldosterone (ng), Percent change from baseline (Day −1) to Day 1 0-24 hr (aldosterone synthase; 2.5 mg QD, normal salt diet): −71.7141% | Urine aldosterone (ng), Percent change from baseline (Day −1) to Day 10 0-24 hr (aldosterone synthase; 2.5 mg QD, normal salt diet): −50.7592% | Urine tetrahydroaldosterone (ng), Percent change from baseline (Day −1) to Day 1 0-24 hr (aldosterone synthase; 2.5 mg QD, normal salt diet): −59.6517% | Urine tetrahydroaldosterone (ng), Percent change from baseline (Day −1) to Day 10 0-24 hr (aldosterone synthase; 2.5 mg QD, normal salt diet): −55.1771% | Urine aldosterone (ng), Percent change from baseline (Day −1) to Day 1 0-24 hr (aldosterone synthase; 5.0 mg QD, low salt diet): −83.5768% | Urine tetrahydroaldosterone (ng), Percent change from baseline (Day −1) to Day 1 0-24 hr (aldosterone synthase; 5.0 mg QD, low salt diet): −67.5905% | Urine tetrahydroaldosterone (ng), Percent change from baseline (Day −1) to Day 10 0-24 hr (aldosterone synthase; 5.0 mg QD, low salt diet): −64.5164% | percent of the dose excreted renally ([1]; control group): approximately 12% | renal excretion ([1]; kidney failure group): negligible renal excretion | geometric mean ratio AUC(0-inf) versus control group ([1]; kidney failure group): 0.68 | geometric mean ratio AUC(0-last) versus control group ([1]; kidney failure group): 0.68 | geometric mean ratio Cmax versus control group ([1]; kidney failure group): 0.88 | percent of the dose excreted renally [1, 2]: approximately 12% | geometric mean ratio AUC(0-inf) versus control group [1, 2]: 1.21 | geometric mean ratio AUC(0-last) versus control group [1, 2]: 1.17 | geometric mean ratio Cmax versus control group [1, 2]: 1.02
